Test results from publication PMC3238500 (Archives of biochemistry and biophysics, 2011).
Like-named read-outs stand apart in the source and are kept apart here.

Key:
[1] = target: T1, pyruvate carboxylase (RePC) (Rhizobium etli, UniProt Q2K340); assay type: biochemical
[2] = target: T1, pyruvate carboxylase (RePC); assay type: biochemical; remark: listed apart in the source
[3] = target: T1, pyruvate carboxylase (RePC); assay type: binding
[4] = target: T1, pyruvate carboxylase (RePC); assay: Stopped-flow fluorescence kinetics of MgTNP-ATP binding to pyruvate carboxylase; conditions: for kobs1 (fast phase of binding) / kobs2 (intermediate phase of binding): 0.5 μM enzyme, double exponential fit; for k-2 / K2 (equilibrium constant between two conformational states, k-2/k2) / k2: intermediate phase

## Nc1ncnc2c1ncn2[C@@H]1O[C@H](COP(=O)(O)OP(=O)([O-])OP(=O)([O-])O)[C@@H](O)[C@H]1O.[Mg+2] [MgATP]
[1]; MgATP varied, absence of acetyl CoA, fit to equation (iii), Fig. 6a
  Km: 150 ± 20 µM
[1]; read-out: Ki (substrate inhibition), MgATP varied, absence of acetyl CoA, fit to equation (iii), Fig. 6a
  Ki: 8.9 ± 1.2 mM
[2]; activation by MgATP, absence of acetyl CoA, Fig. 6b
  Hill coefficient: 3.1 ± 0.5
[2]; between 2 mM and saturating MgATP, absence of acetyl CoA
  increase in activity: approximately 16 fold
[2]; super-catalytic MgATP, absence of acetyl CoA, fit to equation (iv), Fig. 6b
  apparent Ka (activation of ATP cleavage): 5.0 ± 0.4 mM
[3]; addition of 2.5 mM MgATP to 5 μM MgTNP-ATP + 10 μM enzyme + 0.25 mM acetyl CoA
  further decrease in fluorescence: approximately 13%
[4]; 1 mM MgATP in both syringes, 10 μM MgTNP-ATP
  effect on kinetics of MgTNP-ATP binding: essentially identical

## Nc1ncnc2c1ncn2[C@@H]1O[C@H](COP(=O)(O)OP(=O)(O)OP(=O)(O)O)[C@H]2OC3(O[C@H]21)C([N+](=O)[O-])=CC(=[N+]([O-])[O-])C=C3[N+](=O)[O-] (stereo partly drawn) [MgTNP-ATP, 2′,3′-O-(2,4,6-trinitrophenyl) adenosine 5′-triphosphate]
[1]; absence of acetyl CoA, fit to equation (i), Fig. 4c
  kcat2 for the activation by MgTNP-ATP: 1.9 ± 0.1 s⁻¹
[1]; activation by MgTNP-ATP in the absence of acetyl CoA, fit to equation (i), Fig. 4c
  nt (Hill coefficient): 2.3 ± 0.6
[1]; activation by MgTNP-ATP, global fit to equation (ii), Fig. 4b
  nt (Hill coefficient): 2.5 ± 0.4
[1]; concentrations up to 0.25 mM
  substrate in the overall pyruvate carboxylation reaction: not found to be a substrate
[1]; global fit to equation (ii), Fig. 4b
  kcat2 for the reaction activated by MgTNP-ATP: 2.0 ± 0.5 s⁻¹
[4]
  half time of the slowest phase of the binding kinetics: about 20 sec
[4]; 10 μM MgTNP-ATP, Fig. 8a
  kobs1 (fast phase of binding): 234 ± 26 s⁻¹
  kobs2 (intermediate phase of binding): 11 ± 1 s⁻¹
[4]; 20 μM MgTNP-ATP, single exponential fit, Fig. 8c
  k (slow phase of binding): 0.035 ± 0.001 s⁻¹
[4]; 35 μM MgTNP-ATP, Fig. 8b
  kobs1 (fast phase of binding): 475 ± 90 s⁻¹
  kobs2 (intermediate phase of binding): 19 ± 2 s⁻¹
[4]; average value across all concentrations of MgTNP-ATP
  observed first order rate constant, slow phase of binding: 0.035 ± 0.008 s⁻¹
[4]; fast phase, fit to eq (vi)
  k1: 0.20 ± 0.01 μM^-2s^-1
[4]; fit to equation (ix)
  k2 (intermediate phase) as percentage of k1 (fast phase): 5.9%
  k-2 (intermediate phase) as percentage of k-1 (fast phase): 6.6%
[4]; fit to eq (ix)
  k-2: 10.6 ± 0.2 s⁻¹
[4]; fit to eq (vii)
  K2 (equilibrium constant between two conformational states, k-2/k2): 0.02 ± 0.02
  k2: 31 ± 1 s⁻¹
  k-2: 0.6 ± 0.6 s⁻¹
[4]; fit to eq (viii)
  K2 (equilibrium constant between two conformational states, k-2/k2): 0.47 ± 0.05
  k2: 22.6 ± 0.7 s⁻¹
  k-2: 10.5 ± 0.2 s⁻¹
[4]; fit to eq (x)
  k-2: 12.6 ± 0.2 s⁻¹
[4]; fit to eq (xi)
  k2: 0.013 ± 0.001μM^-2s^-1
  k-2: 12.7 ± 0.2 s⁻¹
[4]; fit to eq (xii)
  k2: 0.016 ± 0.001 μM^-2 s^-1
  k-2: 13.5 ± 0.3 s⁻¹

## CC(=O)SCCNC(=O)CCNC(=O)[C@H](O)C(C)(C)COP(=O)(O)OP(=O)(O)OC[C@H]1O[C@@H](n2cnc3c(N)ncnc32)[C@H](O)[C@@H]1OP(=O)(O)O [acetyl CoA]
[1]; activation by acetyl CoA, fit to equation (i), Fig. 4a
  n (Hill coefficient): 2.6 ± 0.2
[1]; activation by acetyl CoA, fit to equation (i), Fig. 4a, 30°C, pH 7.8
  Ka (activation constant): 6.9 ± 0.2 µM
[1]; saturating acetyl CoA, fit to equation (i), Fig. 4a
  kcat2: 20.2 ± 0.1 s⁻¹
[2]; induced by acetyl CoA when MgATP is present up to 1 mM (data not shown)
  increase in the turnover number for ATP cleavage: 7 fold
[3]; addition of 0.25 mM acetyl CoA to 5 μM MgTNP-ATP + 10 μM enzyme
  decrease in maximum fluorescence intensity: approximately 32%
